According to patent US20110015246A2, “LOFEXIDINE ENANTIOMERS FOR USE AS A TREATMENT FOR CNS DISEASE AND PATHOLOGIES AND ITS CHIRAL SYNTHESIS” (Agean LLC, priority 2006, published 2011):
Values belong to the compound of their own block, whether it stands above or below them.

Legend:
[1] = system: α2-adrenergic binding sites in rat brain membranes; test: binding to α2-adrenergic binding sites in rat brain membranes
[2] = effect on blood pressure and bradycardiac activity (peripheral side effects); type: in vivo
[3] = system: α1-adrenergic receptors in rat brain membranes; test: binding to α1-adrenergic receptors in rat brain membranes
[4] = chills, vomiting, sweating, stomach cramps, diarrhea, muscle pain, runny nose and eyes; cited from earlier work
pithed normotensive rats = test: pressor effects after intravenous administration in pithed normotensive rats; type: in vivo, rat
pithed rat = test: electrical stimulation-evoked heart rate and diastolic pressure increase in the pithed rat; type: in vivo
[5] = system: brain adrenergic receptors; test: potency at brain adrenergic receptors involved in opioid detoxification; type: binding
[6] = system: pentobarbitone anesthetized normotensive rats; test: mean arterial pressure and heart rate after intravenous administration in pentobarbitone anesthetized normotensive rats; type: in vivo, rat

potency at α2-adrenergic receptors, times less potent than (−)-lofexidine ([1]; (+) vs (−)): nine
potency at α1-adrenergic receptors, times less potent than (−)-lofexidine ([3]; rat brain membranes, (+) vs (−)): four
SMILES: CC(Oc1c(Cl)cccc1Cl)C1=NCCN1 (single isomer, unassigned; (+)) [(+)-lofexidine, 2-[1-(2,6-dichlorophenoxy)ethyl]-4,5-dihydro-1H-Imidazole]
peripheral side effects on blood pressure ([2]; compared to (±)-lofexidine): considerably lower
bradycardiac activity ([2]; in vivo): practically no effect
effect on reducing blood pressure ([2]; in vivo): practically no effect

SMILES: CC(Oc1c(Cl)cccc1Cl)C1=NCCN1 (racemic) [Lofexidine, 2-[1-(2,6-dichlorophenoxy)ethyl]-4,5-dihydro-1H-Imidazole]
reducing the symptoms associated with heroin withdrawal [4]: effective

affinity for α2-adrenergic binding sites relative to the (+)-enantiomer (times higher) ([1]; (−) vs (+)): about nine
affinity for α1-adrenergic receptors relative to the (+)-enantiomer (times greater) ([3]; (−) vs (+)): about four
SMILES: CC(Oc1c(Cl)cccc1Cl)C1=NCCN1 (single isomer, unassigned; (-)) [(−)-lofexidine, 2-[1-(2,6-dichlorophenoxy)ethyl]-4,5-dihydro-1H-Imidazole]
doses eliciting pressor effects, times lower than (+)-lofexidine (pithed normotensive rats): 20 times
potency in decreasing the increased heart rate evoked by electrical stimulation relative to (+)-lofexidine (pithed rat): thirty
impairment of electrical stimulation-induced increase in diastolic pressure (pithed rat; compared with (+)-lofexidine): more effectively unpaired
potency at brain adrenergic receptors compared with (+)-lofexidine [5]: more potent
effectiveness in decreasing heart rate relative to (+)-lofexidine [6]: twenty
effectiveness in decreasing mean arterial pressure relative to (+)-lofexidine [6]: twenty
